Results published in patent US6747021B2, “Cryptophycin compound” (Eli Lilly and Company, priority 2000, dated 2004).
Where two headings read alike, the source gives them in different places.

Columns and labels:
[1] = test system: HUMAN COLON ADEN[…]-116; test: Early stage human colon adenocarcinoma HCT-116 xenograft assay; type: in vivo; conditions: Balb/C SCID female mice
From the text: (§1) Inhibition of tumors transplanted into mice is an accepted procedure for studying the efficacy of antitumor agents (Corbett, et al., In vivo Methods for Screening and Preclinical Testing; Use of rodent solid tumors for drug discovery., In: Anticancer Drug Development Guide: Preclinical Screening, Clinical Trials, and Approval, B. Teicher (ed), Humana Press Inc., Totowa, N.J., Chapter 5, pages 75-99 (1997); (Corbett, et al., Int. J. Pharmacog., 33, Supplement, 102-122 (1995)). Murine tumors or human xenographs were implanted essentially as described by Corbett in In vivo Methods for Screening and Preclinical Testing; Use of rodent solid tumors for drug discovery. Briefly, the murine tumor or human xenograph was implanted subcutaneously using either 12-gauge trocar implants or counted number of cells. The location for the trocar insertion is midway between the axillary and inguinal region along the side of the mouse. The trocar is slipped approximately ¾ of an inch subcutaneously up toward the axilla before discharging the tumor fragment, and pinching the skin as the trocar is removed. Alternatively, human tumor cells prepared from a […] of donor tumors (5×10^6 cells) were implanted subcutaneously in a hind-leg of a male or female nude mouse (Charles River). Either a test compound in vehicle or vehicle alone was administered by intravenous bolus injection (iv), intraperitoneal injection (ip), or oral gavage (po). Each treatment group, as well as a group of untreated control animals, consisted of five animals per group in each experiment. Subcutaneous tumor response was monitored by tumor volume measurement performed twice each week over the course of the experiment (60-120 days). Body weights were taken as a general measure of toxicity. The subcutaneous tumor data were analyzed by determining the median tumor weight for each treatment group over the course of the experiment and calculating the tumor growth delay as the difference in days for the treatment versus the control tumors to reach a volume of either 500 or 1000 mm^3.
(§2) Cryptophycin-309 (309) was tested against a variety of murine and human tumors substantially as described supra. Cryptophycin-55 glycinate (55-GLY), Taxol, and Adriamycin (Adria) were also included in certain tests for purposes of comparison. Cryptophycin 55 glycinate is known in the art (WO 98/08505, Example 9) and has the following structure: [drawing 9]
(§3) Tumor Weight(mg)=(a×b^2)/2 where a=tumor length (mm) and b=tumor width (mm).
(§4) Tumor Growth Delay=T−C where T is the median time (days) required for the treatment group tumors to reach a predetermined size, and C is the median time (days) for the control group tumors to reach the same size. Tumor-free survivors are excluded from this calculation, and are tabulated separately (Tumor Free).
(§5) Log Kill=Tumor Growth Delay/(3.32)(Td)
(§6) where Tumor Growth Delay is as previously defined and Td is tumor volume doubling time (days), estimated from the best fit straight line from a log-linear growth plot of the control group of tumors in exponential growth (100-800 mg range)
(§7) %T/C mass—The treatment and control groups are measured when the control group tumors reach approximately 700 to 1200 mg in size (median group). The median tumor weight of each group is determined (including zeros). The T/C value in percent is an indication of antitumor effectiveness. A T/C≦42% is considered significant antitumor activity. A T/C<10% is considered to indicate highly significant antitumor activity.
(§8) Body Weight Loss Nadir—A body weight loss nadir (mean of group) of greater than 20% or drug deaths greater than 20% are considered to indicate an excessively toxic dosage in single course trials.
(§9) Activity Rating—the Activity Rating is derived from the Log Kill according to the following table: […]

[2] = test system: HUMAN COLON ADENOCARCINOMA 15; type: in vivo; conditions: Balb/C SCID female mice
From the text: as §1, §2, §3, §4, §5, §6, §7, §8, §9

[3] = test system: MAMMARY ADENOCARCINOMA-16/C/Adr; test: Early stage murine mammary adenocarcinoma-16/C/Adr subcutaneous tumor assay; type: in vivo; conditions: IV 20 mg/kg/inj days 1,3,5,7,9; total dose 100 mg/kg; C3H female mice
From the text: as §1, §2, §3, §4, §5, §6, §7, §8, §9

[4] = test system: COLON ADENOCARCINOMA-26/A; type: in vivo, murine; conditions: Balb/C female mice
From the text: as §1, §2, §3, §4, §5, §6, §7, §8, §9

[5] = test system: COLON ADENOCARCINOMA 51/A; test: Early stage murine colon adenocarcinoma 51/A subcutaneous tumor assay; type: in vivo; conditions: IV 28 mg/kg/inj days 3,5,7,9,11; total dose 140 mg/kg; CDF female mice
From the text: as §1, §2, §3, §4, §5, §6, §7, §8, §9

[6] = IV 16.5 mg/kg/inj days 3,5,7,9,11, total dose 82.5 mg/kg
[7] = IV 25 mg/kg/inj days 3,5,7,9,11, total dose 125 mg/kg
[8] = IV 38 mg/kg/inj days 3,5,7,9,11, total dose 190 mg/kg
[9] = IV 15 mg/kg/inj days 1,3,5,7,9, total dose 75 mg/kg
[10] = IV 23 mg/kg/inj days 1,3,5,7,9, total dose 115 mg/kg
[11] = IV 35 mg/kg/inj days 1,3,5,7,9, total dose 175 mg/kg

COc1ccc(C[C@H]2NC(=O)/C=C/C[C@@H]([C@H](C)[C@@H](OC(=O)CN)[C@@H](Cl)c3ccccc3)OC(=O)[C@H](CC(C)(C)C)OC(=O)[C@H](C)CNC2=O)cc1Cl [Cryptophycin 309, Cryptophycin-309]
% T/C MASS [1, 6]: 0% | ACTIVITY RATING [1, 6]: +++ (2.0-2.8) | DRUG DEATHS [1, 6]: 0/5 | GROWTH DELAY [1, 6]: 22 days | LOG KILL [1, 6]: 2.65 | MEDIAN TUMOR WEIGHT [1, 6]: 0 mg | % T/C MASS [1, 7]: 0% | ACTIVITY RATING [1, 7]: ++++ (>2.8) | DRUG DEATHS [1, 7]: 0/5 | GROWTH DELAY [1, 7]: 29.5 days | LOG KILL [1, 7]: 3.6 | MEDIAN TUMOR WEIGHT [1, 7]: 0 mg | % T/C MASS [1, 8]: 0% | ACTIVITY RATING [1, 8]: ++++ (>2.8) | DRUG DEATHS [1, 8]: 0/5 | GROWTH DELAY [1, 8]: 34 days | LOG KILL [1, 8]: 4.1 | MEDIAN TUMOR WEIGHT [1, 8]: 0 mg | % T/C MASS [2, 6]: 11% | ACTIVITY RATING [2, 6]: +++ (2.0-2.8) | DRUG DEATHS [2, 6]: 0/5 | GROWTH DELAY [2, 6]: 24.5 days | LOG KILL [2, 6]: 2.5 | MEDIAN TUMOR WEIGHT [2, 6]: 126 mg | % T/C MASS [2, 7]: 0% | ACTIVITY RATING [2, 7]: ++++ (>2.8) | DRUG DEATHS [2, 7]: 0/5 | GROWTH DELAY [2, 7]: 31.5 days | LOG KILL [2, 7]: 3.2 | MEDIAN TUMOR WEIGHT [2, 7]: 0 mg | % T/C MASS [2, 8]: 0% | ACTIVITY RATING [2, 8]: ++++ (>2.8) | DRUG DEATHS [2, 8]: 0/5 | GROWTH DELAY [2, 8]: 32.5 days | LOG KILL [2, 8]: 3.3 | MEDIAN TUMOR WEIGHT [2, 8]: 0 mg | % T/C MASS [3]: 0% | ACTIVITY RATING [3]: ++++ (>2.8) | DRUG DEATHS [3]: 0/5 | GROWTH DELAY [3]: 11 days | LOG KILL [3]: 3.0 | MEDIAN TUMOR WEIGHT [3]: 0 mg | % T/C MASS [4, 9]: 14% | ACTIVITY RATING [4, 9]: + (0.7-1.2) | DRUG DEATHS [4, 9]: 0/5 | GROWTH DELAY [4, 9]: 6.65 days | LOG KILL [4, 9]: 1.2 | MEDIAN TUMOR WEIGHT [4, 9]: 126 mg | % T/C MASS [4, 10]: 0% | ACTIVITY RATING [4, 10]: +++ (2.0-2.8) | DRUG DEATHS [4, 10]: 0/5 | GROWTH DELAY [4, 10]: 12.75 days | LOG KILL [4, 10]: 2.3 | MEDIAN TUMOR WEIGHT [4, 10]: 0 mg | % T/C MASS [4, 11]: 0% | ACTIVITY RATING [4, 11]: +++ (2.0-2.8) | DRUG DEATHS [4, 11]: 0/5 | GROWTH DELAY [4, 11]: 15.25 days | LOG KILL [4, 11]: 2.7 | MEDIAN TUMOR WEIGHT [4, 11]: 0 mg | % T/C MASS [5]: 0% | ACTIVITY RATING [5]: +++ (2.0-2.8) | DRUG DEATHS [5]: 0/6 | GROWTH DELAY [5]: 20.1 days | LOG KILL [5]: 2.4 | MEDIAN TUMOR WEIGHT [5]: 0 mg
